From PubChem BioAssay (NCI)
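The concentration for 50% growth inhibition is given as GI50. TGI is the concentration that stops growth completely.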

What was measured:
Experiment in all cases: NCI anticancer screen, dose series, 384-well format
[1] = tested on: RXF 393 renal
[2] = tested on: UACC-257 melanoma
[3] = tested on: NCI-H522 lung
[4] = tested on: A549 NSCLC
[5] = tested on: EKVX NSCLC
[6] = tested on: COLO 205 colon
[7] = tested on: OVCAR-5 ovarian
[8] = tested on: OVCAR-4 ovarian
[9] = tested on: HCC-2998 colon
[10] = tested on: NCI-H322M lung
[11] = tested on: MCF7 breast
[12] = tested on: SN12C renal
[13] = tested on: KM12 colon
[14] = tested on: NCI-H226 lung
[15] = tested on: TK-10 renal
[16] = tested on: MDA-MB-435 melanoma
[17] = tested on: HT29 colon
[18] = tested on: NCI/ADR-RES ovarian
[19] = tested on: IGROV1 ovarian
[20] = tested on: DU-145 prostate
[21] = tested on: OVCAR-8 ovarian
[22] = tested on: HCT-116 colon
[23] = tested on: SNB-75 CNS
[24] = tested on: UACC-62 melanoma
[25] = tested on: SF-295 CNS
[26] = tested on: SNB-19 CNS
[27] = tested on: MDA-MB-468 breast
[28] = tested on: HS 578T breast
[29] = tested on: OVCAR-3 ovarian
[30] = tested on: HL-60(TB) leukemia
[31] = tested on: SK-MEL-28 melanoma
[32] = tested on: BT-549 breast
[33] = tested on: MOLT-4 leukemia
[34] = tested on: CAKI-1 renal
[35] = tested on: SR leukemia
[36] = tested on: T-47D breast
[37] = tested on: PC-3 prostate
[38] = tested on: SK-OV-3 ovarian
[39] = tested on: NCI-H460 NSCLC
[40] = tested on: A498 renal
[41] = tested on: SF-539 CNS
[42] = tested on: U251 glioblastoma
[43] = tested on: RPMI-8226 leukemia
[44] = tested on: ACHN renal
[45] = tested on: HCT-15 colon
[46] = tested on: LOX IMVI melanoma
[47] = tested on: SK-MEL-5 melanoma
[48] = tested on: SF-268 CNS
[49] = tested on: HOP-62 NSCLC
[50] = tested on: MDA-MB-231 breast
[51] = tested on: NCI-H23 lung
[52] = tested on: MALME-3M melanoma
[53] = tested on: M14 melanoma
[54] = tested on: HOP-92 NSCLC
[55] = tested on: 786-0 renal
[56] = tested on: SW-620 colon
[57] = tested on: UO-31 renal
[58] = tested on: K-562 leukemia

Compound: CN(C)Cc1c(C(=O)NCCOc2ccc(C(=O)NO)cc2)oc2ccccc12
- GI50 [1]: 291 nM
- TGI [1]: 1130 nM
- GI50 [2]: 43.2 nM
- TGI [2]: 194 nM
- GI50 [3]: 71.3 nM
- TGI [3]: 571 nM
- GI50 [4]: 313 nM
- TGI [4]: 1240 nM
- GI50 [5]: 403 nM
- TGI [5]: 3110 nM
- GI50 [6]: 158 nM
- TGI [6]: 319 nM
- GI50 [7]: 57.7 nM
- TGI [7]: 212 nM
- GI50 [8]: 213 nM
- TGI [8]: 495 nM
- GI50 [9]: 109 nM
- TGI [9]: 362 nM
- GI50 [10]: 180 nM
- TGI [10]: 713 nM
- GI50 [11]: 133 nM
- TGI [11]: 510 nM
- GI50 [12]: 130 nM
- TGI [12]: 392 nM
- GI50 [13]: 311 nM
- TGI [13]: 1700 nM
- GI50 [14]: 376 nM
- TGI [14]: 1600 nM
- GI50 [15]: 184 nM
- TGI [15]: 475 nM
- GI50 [16]: 201 nM
- TGI [16]: 401 nM
- GI50 [17]: 219 nM
- TGI [17]: 943 nM
- GI50 [18]: 387 nM
- TGI [18]: 1840 nM
- GI50 [19]: 111 nM
- TGI [19]: 324 nM
- GI50 [20]: 118 nM
- TGI [20]: 320 nM
- GI50 [21]: 46.9 nM
- TGI [21]: 1130 nM
- GI50 [22]: 92.3 nM
- TGI [22]: 479 nM
- GI50 [23]: 310 nM
- TGI [23]: 2820 nM
- GI50 [24]: 112 nM
- TGI [24]: 256 nM
- GI50 [25]: 161 nM
- TGI [25]: 335 nM
- GI50 [26]: 322 nM
- TGI [26]: 1120 nM
- GI50 [27]: 130 nM
- TGI [27]: 457 nM
- GI50 [28]: 145 nM
- TGI [28]: 385 nM
- GI50 [29]: 176 nM
- TGI [29]: 626 nM
- GI50 [30]: 56.9 nM
- TGI [30]: 148 nM
- GI50 [31]: 171 nM
- TGI [31]: 561 nM
- GI50 [32]: 264 nM
- TGI [32]: 1350 nM
- GI50 [33]: 42.2 nM
- TGI [33]: 143 nM
- GI50 [34]: 316 nM
- TGI [34]: 1100 nM
- GI50 [35]: 31.7 nM
- TGI [35]: 136 nM
- GI50 [36]: 136 nM
- TGI [36]: 300 nM
- GI50 [37]: 165 nM
- TGI [37]: 439 nM
- GI50 [38]: 175 nM
- TGI [38]: 745 nM
- GI50 [39]: 135 nM
- TGI [39]: 1040 nM
- GI50 [40]: 187 nM
- TGI [40]: 658 nM
- GI50 [41]: 285 nM
- TGI [41]: 2100 nM
- GI50 [42]: 155 nM
- TGI [42]: 332 nM
- GI50 [43]: 11.9 nM
- TGI [43]: 26.2 nM
- GI50 [44]: 221 nM
- TGI [44]: 578 nM
- GI50 [45]: 480 nM
- TGI [45]: 2010 nM
- GI50 [46]: 170 nM
- TGI [46]: 320 nM
- GI50 [47]: 132 nM
- TGI [47]: 278 nM
- GI50 [48]: 197 nM
- TGI [48]: 604 nM
- GI50 [49]: 170 nM
- TGI [49]: 690 nM
- GI50 [50]: 248 nM
- TGI [50]: 811 nM
- GI50 [51]: 267 nM
- TGI [51]: 1370 nM
- GI50 [52]: 87.6 nM
- TGI [52]: 330 nM
- GI50 [53]: 250 nM
- TGI [53]: 1080 nM
- GI50 [54]: 310 nM
- TGI [54]: 1330 nM

Compound: C=CC(=O)N1CC[C@H](n2nc(C#Cc3cc(OC)cc(OC)c3)c3c(N)ncnc32)C1
- GI50 [1]: 6720 nM
- TGI [1]: 66400 nM
- GI50 [2]: 2860 nM
- TGI [2]: 8350 nM
- GI50 [3]: 4390 nM
- TGI [3]: 14200 nM
- GI50 [4]: 12700 nM
- TGI [4]: > 100000 nM
- GI50 [5]: 13400 nM
- TGI [5]: 98900 nM
- GI50 [6]: 30000 nM
- TGI [6]: > 100000 nM
- GI50 [7]: 49400 nM
- TGI [7]: > 100000 nM
- GI50 [8]: 2020 nM
- TGI [8]: 25600 nM
- GI50 [9]: 2980 nM
- TGI [9]: 11000 nM
- GI50 [10]: 11500 nM
- TGI [10]: > 100000 nM
- GI50 [11]: 4340 nM
- TGI [11]: > 100000 nM
- GI50 [55]: 2960 nM
- TGI [55]: 19100 nM
- GI50 [12]: 3640 nM
- TGI [12]: 33900 nM
- GI50 [13]: 10200 nM
- TGI [13]: 42100 nM
- GI50 [14]: 12700 nM
- TGI [14]: > 100000 nM
- GI50 [15]: 5660 nM
- TGI [15]: 71700 nM
- GI50 [16]: 31100 nM
- TGI [16]: > 100000 nM
- GI50 [17]: 17500 nM
- TGI [17]: > 100000 nM
- GI50 [18]: 11100 nM
- TGI [18]: 44300 nM
- GI50 [19]: 4930 nM
- TGI [19]: 20700 nM
- GI50 [20]: 9040 nM
- TGI [20]: > 100000 nM
- GI50 [21]: 15900 nM
- TGI [21]: 72300 nM
- GI50 [23]: 1440 nM
- TGI [23]: 10700 nM
- GI50 [56]: 13200 nM
- TGI [56]: 32600 nM
- GI50 [24]: 5780 nM
- TGI [24]: 30500 nM
- GI50 [57]: 17600 nM
- TGI [57]: > 100000 nM
- GI50 [25]: 25500 nM
- TGI [25]: > 100000 nM
- GI50 [26]: 12600 nM
- TGI [26]: > 100000 nM
- GI50 [27]: 2090 nM
- TGI [27]: 4530 nM
- GI50 [28]: 2740 nM
- TGI [28]: 11500 nM
- GI50 [29]: 3450 nM
- TGI [29]: 17600 nM
- GI50 [30]: 4600 nM
- TGI [30]: 16000 nM
- GI50 [31]: 17700 nM
- TGI [31]: 91200 nM
- GI50 [32]: 1510 nM
- TGI [32]: 12200 nM
- GI50 [33]: 2470 nM
- TGI [33]: 5060 nM
- GI50 [34]: 4440 nM
- TGI [34]: > 100000 nM
- GI50 [58]: 12000 nM
- TGI [58]: > 100000 nM
- GI50 [35]: 3110 nM
- TGI [35]: 13000 nM
- GI50 [36]: 3290 nM
- TGI [36]: 52600 nM
- GI50 [37]: 20100 nM
- TGI [37]: > 100000 nM
- GI50 [38]: 5240 nM
- TGI [38]: 41500 nM
- GI50 [39]: 12000 nM
- TGI [39]: > 100000 nM
- GI50 [40]: 2730 nM
- TGI [40]: 18200 nM
- GI50 [41]: 4520 nM
- TGI [41]: 20600 nM
- GI50 [43]: 1530 nM
- TGI [43]: 4410 nM
- GI50 [44]: 6800 nM
- TGI [44]: 72900 nM
- GI50 [45]: 4460 nM
- TGI [45]: 25600 nM
- GI50 [46]: 6090 nM
- TGI [46]: 22100 nM
- GI50 [47]: 5050 nM
- TGI [47]: 18900 nM
- GI50 [48]: 9330 nM
- TGI [48]: 75000 nM
- GI50 [49]: 6440 nM
- TGI [49]: > 100000 nM
- GI50 [50]: 4030 nM
- TGI [50]: 68200 nM
- GI50 [51]: 10500 nM
- TGI [51]: 28600 nM
- GI50 [52]: 7390 nM
- TGI [52]: 31400 nM
- GI50 [53]: 16900 nM
- TGI [53]: 69800 nM
- GI50 [54]: 2520 nM
- TGI [54]: 14200 nM
